Measured values: patent US8362012B2, “Benzoxazine benzimidazole derivative, a pharmaceutical composition comprising the same, and a use thereof” (Daewoong Pharmaceutical Co., Ltd., priority 2008, dated 2013)

Experiments:
[1] = biological target: T1, human vanilloid-1 (hVR-1) in hVR-1-HEK293 cell line (Homo sapiens, UniProt Q8NER1); assay: Inhibitory effect on calcium influx via a vanilloid receptor (capsaicin-stimulated, Fluo-3/AM); type: cell-based; conditions: hVR-1-HEK293 cells, 1 μM of capsaicin, compounds 0.015˜2000 nM; read-out: I.A. (inhibitory activity), IC50 on intracellular calcium influx
T1 construct: expressed in transfected cells; host or cells: HEK293 Tet-on strain, doxycycline-induced
T1 sequence (Q8NER1 whole entry): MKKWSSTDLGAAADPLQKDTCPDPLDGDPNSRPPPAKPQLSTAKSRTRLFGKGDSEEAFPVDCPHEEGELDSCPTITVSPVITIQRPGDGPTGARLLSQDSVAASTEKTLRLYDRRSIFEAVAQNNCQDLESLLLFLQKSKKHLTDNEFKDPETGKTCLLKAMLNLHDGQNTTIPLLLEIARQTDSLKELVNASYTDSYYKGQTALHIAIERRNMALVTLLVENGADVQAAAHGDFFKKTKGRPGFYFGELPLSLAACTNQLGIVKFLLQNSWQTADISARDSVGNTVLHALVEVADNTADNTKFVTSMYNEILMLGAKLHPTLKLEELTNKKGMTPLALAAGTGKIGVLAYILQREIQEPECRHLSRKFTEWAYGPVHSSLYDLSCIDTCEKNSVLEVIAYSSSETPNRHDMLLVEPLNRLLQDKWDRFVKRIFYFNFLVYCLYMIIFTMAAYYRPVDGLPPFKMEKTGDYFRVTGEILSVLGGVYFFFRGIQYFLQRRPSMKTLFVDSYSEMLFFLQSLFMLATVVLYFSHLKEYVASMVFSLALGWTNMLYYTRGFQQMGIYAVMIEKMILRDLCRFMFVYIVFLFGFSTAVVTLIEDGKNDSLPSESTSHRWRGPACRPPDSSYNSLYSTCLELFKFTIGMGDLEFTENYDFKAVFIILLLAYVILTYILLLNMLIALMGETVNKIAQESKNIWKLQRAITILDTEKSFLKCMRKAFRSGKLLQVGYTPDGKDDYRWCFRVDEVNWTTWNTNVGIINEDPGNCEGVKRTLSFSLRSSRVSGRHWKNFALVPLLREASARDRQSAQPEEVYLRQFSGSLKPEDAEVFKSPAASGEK
Procedure: The cell line can modulate the expression of VR-1, depending on whether doxycycline, a derivative of tetracycline, is present or not. […] Specifically, hVR-1-HEK293 cells were cultured in a T75 flask to about 80% confluency, separated from the flask by treating with trypsin solution, and then collected by centrifugation. The cells were suspended in a medium containing 1 μg/mL of doxycycline, and the resulting suspension was diluted to a concentration of 2˜4×10^5 cells/mL […], of the cell suspension was placed in each well of a 96-well black plate. The cells were cultured in 5% CO2 incubator at 37° C. for 2 days, and used for the following procedure. […] The cells prepared in 1) above were cultured at 37° C. for 90 min in a solution containing Fluo-3/AM, a fluorescent dye, as a calcium indicator so that the fluorescent dye was permeated into the cells. […] In order to stimulate calcium influx through a vanilloid receptor, the cells were treated with 1 μM of capsaicin. […] The obtained data were input to the Hill equation represented by the following formula I and the values were analyzed: Intracellular calcium influx= [(fluorescent intensity of experimental group−fluorescent intensity of background)/(fluorescent intensity of positive control−fluorescent intensity of background)]*100 [Formula I] The inhibitory activities were evaluated from the obtained intracellular calcium influx values according to the following criteria.

[2] = test system: ICR male mice; assay: Phenyl-p-quinone (PBQ)-induced writhing experiment using mice; type: in vivo; conditions: orally administered, PBQ (0.02%) intraperitoneally after 1 hour; for I.A. (inhibitory activity), % inhibition rate of writhing: writhing counted for 10 min
Procedure: In order to evaluate the effect on pain of the compounds prepared in the Examples, behaviors such as twisting or writhing of body resulted from pain were verified by the phenyl-p-quinone (PBQ)-induced writhing experiment using mice. 5 week-old ICR male mice were used as experimental animals and PBQ (0.02%), as a chemical stimulator. The suspensions of 20 mg of the compounds of the present invention and an excipient such as Na—CMC (sodium carboxymethyl cellulose) in 10 mL of saline were used as test compounds. The test compounds were orally administered to the mice and after 1 hour, PBQ was intraperitoneally administrated in an amount of 10 mL per kg of body weight. Also, as a control group, equivalent amounts of BCTC were administered. The writhing number of each mouse was measured for 10 min starting from 5 min after the administration, and the analgesic effect was verified by counting the reduced number compared to the control group administered with only excipient and calculating the % inhibitory rate according to the following Formula 2. % inhibition rate=(writhing # of control group−writhing # of test group)/writhing # of control group×100 [Formula 2]

Compound	IC50 [1]	I.A. (inhibitory activity), % inhibition rate of writhing [2]	% inhibition rate of writhing [2]
CCc1ccc(N2c3cccc(-c4nc5c(Br)cc(C(F)(F)F)cc5[nH]4)c3OC[C@@H]2CO)nc1 [Example 81, [(S)-8-(4-bromo-6-trifluoromethyl-1H-benzimidazol-2-yl)-4-(5-ethyl-pyridin-2-yl)-3,4-dihydro-2H-benzo[1,4]oxazin-3-yl]-methanol]	< 20 nM	+++ (51-80%)	–
COC[C@H]1COc2c(-c3nc4ccc(C(C)(C)C)cc4[nH]3)cccc2N1c1ccc(C)cn1 [Example 88, (S)-8-(6-tert-butyl-1H-benzimidazol-2-yl)-3-methoxymethyl-4-(5-methyl-pyridin-2-yl)-3,4-dihydro-2H-benzo[1,4]oxazine]	< 20 nM	++ (20˜50%)	–
Cc1ccc(N2c3cccc(-c4nc5cc(F)c(Cl)cc5[nH]4)c3OC[C@@H]2CO)nc1 [Example 45, [(S)-8-(6-chloro-5-fluoro-1H-benzimidazol-2-yl)-4-(5-methyl-pyridin-2-yl)-3,4-dihydro-2H-benzo[1,4]oxazin-3-yl]-methanol]	< 20 nM	+++ (51-80%)	–
Cc1ccc(N2c3cccc(-c4nc5cc(Cl)c(Cl)cc5[nH]4)c3OC[C@@H]2CO)nc1 [Example 38, [(S)-8-(5,6-dichloro-1H-benzimidazol-2-yl)-4-(5-methyl-pyridin-2-yl)-3,4-dihydro-2H-benzo[1,4]oxazin-3-yl]-methanol]	< 20 nM	+++ (51-80%)	–
COC[C@H]1COc2c(-c3nc4cc(F)c(F)cc4[nH]3)cccc2N1c1ccc(C)cn1 [Example 102, (S)-8-(5,6-difluoro-1H-benzimidazol-2-yl)-3-methoxymethyl-4-(5-methyl-pyridin-2-yl)-3,4-dihydro-2H-benzo[1,4]oxazine]	< 20 nM	+++ (51-80%)	–
COC[C@H]1COc2c(-c3nc4c(C)cc(Br)cc4[nH]3)cccc2N1c1ccc(C)cn1 [Example 104, (S)-8-(6-bromo-4-methyl-1H-benzimidazol-2-yl)-3-methoxymethyl-4-(5-methyl-pyridin-2-yl)-3,4-dihydro-2H-benzo[1,4]oxazine]	< 20 nM	+++ (51-80%)	–
Cc1ccc(N2c3cccc(-c4nc5c(Br)cc(OC(F)(F)F)cc5[nH]4)c3OC[C@@H]2CO)nc1 [Example 54, [(S)-8-(4-bromo-6-trifluoromethoxy-1H-benzimidazol-2-yl)-4-(5-methyl-pyridine-2-yl)-3,4-dihydro-2H-benzo[1,4]oxazin-3-yl]-methanol]	< 20 nM	–	–
CC(C)(C)c1ccc2[nH]c(-c3cccc4c3OCCN4c3ccc(Br)cn3)nc2c1 [Example 13, 4-(5-bromo-pyridin-2-yl)-8-(5-tert-butyl-1H-benzimidazol-2-yl)-3,4-dihydro-2H-benzo[1,4]oxazine]	20 to 100 nM	–	–
Cc1ccc(N2CCOc3c(-c4nc5cc(Cl)ccc5[nH]4)cccc32)nc1 [Example 27, 8-(5-chloro-1H-benzimidazol-2-yl)-4-(5-methyl-pyridin-2-yl)-3,4-dihydro-2H-benzo[1,4]oxazine]	101 to 500 nM	–	–
COC[C@H]1COc2c(-c3nc4cc(C)ccc4[nH]3)cccc2N1c1ccc(C)cn1 [Example 109, (S)-3-(methoxymethyl)-8-(5-methyl-1H-benzo[d]imidazol-2-yl)-4-(5-methyl-pyridin-2-yl)-3,4-dihydro-2H-benzo[b][1,4]oxazine]	101 to 500 nM	–	–
CC(C)(C)c1ccc2nc(-c3cccc4c3OCCN4c3ncccc3C(F)(F)F)[nH]c2c1 [Example 7, 8-(6-tert-butyl-1H-benzimidazol-2-yl)-4-(3-trifluoromethyl-pyridin-2-yl)-3,4-dihydro-2H-benzo[1,4]oxazine]	> 1000 nM	–	–
CC(C)(C)c1ccc2[nH]c(-c3cccc4c3OCCN4c3ccc(Cl)cn3)nc2c1 [Example 14, 8-(5-tert-butyl-1H-benzimidazol-2-yl)-4-(5-chloro-pyridin-2-yl)-3,4-dihydro-2H-benzo[1,4]oxazine]	20 to 100 nM	–	–
N-(4-tert-butylphenyl)-4-(3-chloropyridin-2-yl)piperazin-1-carboxyamide [BCTC, reference compound]	–	++ (20˜50%)	33%
COC[C@H]1COc2c(-c3nc4c(Br)cc(OC(F)(F)F)cc4[nH]3)cccc2N1c1ccc(C)cn1 [Example 105, (S)-8-(4-bromo-6-trifluoromethoxy-1H-benzimidazol-2-yl)-3-methoxymethyl-4-(5-methyl-pyridin-2-yl)-3,4-dihydro-2H-benzo[1,4]oxazine]	< 20 nM	–	–
FC(F)(F)c1ccc2nc(-c3cccc4c3OCCN4c3ncccc3C(F)(F)F)[nH]c2c1 [Example 17, 8-(6-trifluoromethyl-1H-benzimidazol-2-yl)-4-(3-trifluoromethyl-pyridin-2-yl)-3,4-dihydro-2H-benzo[1,4]oxazine]	> 1000 nM	–	–
CCc1ccc(N2c3cccc(-c4nc5ccc(C(F)(F)F)cc5[nH]4)c3OC[C@@H]2CO)nc1 [Example 79, [(S)-4-(5-ethyl-pyridin-2-yl)-8-(6-trifluoromethyl-1H-benzimidazol-2-yl)-3,4-dihydro-2H-benzo[1,4]oxazin-3-yl]-methanol]	20 to 100 nM	–	–
Cc1ccc(N2CCOc3c(-c4nc5c(C(F)(F)F)cc(C(F)(F)F)cc5[nH]4)cccc32)nc1 [Example 30, 8-(4,6-bis-trifluoromethyl-1H-benzimidazol-2-yl)-4-(5-methyl-pyridin-2-yl)-3,4-dihydro-2H-benzo[1,4]oxazine]	101 to 500 nM	–	–

Continued, in another order:

IC50 [1]	Compound	I.A. (inhibitory activity), % inhibition rate of writhing [2]	% inhibition rate of writhing [2]
< 20 nM	C=Cc1ccc(N2c3cccc(-c4nc5ccc(OC(F)(F)F)cc5[nH]4)c3OC[C@@H]2CO)nc1 [Example 67, [(S)-8-(6-trifluoromethoxy-1H-benzimidazol-2-yl)-4-(5-vinyl-pyridin-2-yl)-3,4-dihydro-2H-benzo[1,4]oxazin-3-yl]-methanol]	+++ (51-80%)	–
20 to 100 nM	C=Cc1ccc(N2c3cccc(-c4nc5cc(F)c(Cl)cc5[nH]4)c3OC[C@@H]2CO)nc1 [Example 70, [(S)-8-(6-chloro-5-fluoro-1H-benzimidazol-2-yl)-4-(5-vinyl-pyridin-2-yl)-3,4-dihydro-2H-benzo[1,4]oxazin-3-yl]-methanol]	–	–
101 to 500 nM	COC[C@H]1COc2c(-c3nc4c(C)cccc4[nH]3)cccc2N1c1ccc(C)cn1 [Example 108, (S)-3-(methoxymethyl)-8-(4-methyl-1H-benzo[d]imidazol-2-yl)-4-(5-methyl-pyridin-2-yl)-3,4-dihydro-2H-benzo[b][1,4]oxazine]	–	–
20 to 100 nM	C=Cc1ccc(N2c3cccc(-c4nc5c(C)cccc5[nH]4)c3OC[C@@H]2CO)nc1 [Example 76, (S)-(8-(4-methyl-1H-benzo[d]imidazol-2-yl)-4-(5-vinyl-pyridin-2-yl)-3,4-dihydro-2H-benzo[b][1,4]oxazin-3-yl)methanol]	–	–
101 to 500 nM	C=Cc1ccc(N2c3cccc(-c4nc5ccc(C)cc5[nH]4)c3OC[C@@H]2CO)nc1 [Example 74, (S)-(8-(6-methyl-1H-benzo[d]imidazol-2-yl)-4-(5-vinyl-pyridin-2-yl)-3,4-dihydro-2H-benzo[b][1,4]oxazin-3-yl)methanol]	–	–
501 to 1000 nM	C=Cc1ccc(N2c3cccc(-c4nc5ccc(OC)cc5[nH]4)c3OC[C@@H]2CO)nc1 [Example 72, (S)-(8-(6-methoxy-1H-benzo[d]imidazol-2-yl)-4-(5-vinyl-pyridin-2-yl)-3,4-dihydro-2H-benzo[b][1,4]oxazin-3-yl)methanol]	–	–
20 to 100 nM	C=Cc1ccc(N2c3cccc(-c4nc5c(C)c(C)ccc5[nH]4)c3OC[C@@H]2CO)nc1 [Example 77, (S)-(8-(4,5-dimethyl-1H-benzo[d]imidazol-2-yl)-4-(5-vinyl-pyridin-2-yl)-3,4-dihydro-2H-benzo[b][1,4]oxazin-3-yl)methanol]	–	–
101 to 500 nM	Cc1ccc(N2c3cccc(-c4nc5ccc(C#N)cc5[nH]4)c3OC[C@@H]2CO)nc1 [Example 56, (S)-2-(3-(hydroxymethyl)-4-(5-methyl-pyridin-2-yl)-3,4-dihydro-2H-benzo[b][1,4]oxazin-8-yl)-1H-benzo[d]imidazol-6-carbonitrile]	–	–
